test: Human HepG2 cell viability assay in 384 well format; format: toxicity, cell-based; parameters: dose 125 nL, time 70.5 hour; concentration not given beside the values; conditions: HepG2 cells, read-out: Inhibition

SMILES	cytotoxicity at 70.5 h [%]
Nc1cc(-c2cccs2)nn(CC(=O)N2CCc3ccccc32)c1=O	-2.52
Fc1cccc(-c2nc(CN3CCCCC3Cn3cncn3)co2)c1 (stereo not given)	-15.4
Cc1noc(CN(CCc2cccs2)Cc2cccc(C#N)c2)n1	0.848
CN(Cc1ccccn1)C(C(=O)O)c1ccc2c(c1)OCO2 (stereo not given)	-2.22
Cc1cccc(N2CCN(C(=O)CCCC(=O)N(C)C)C(C)C2)n1 (stereo not given)	-18.7
CC(C)(C)c1nc(CN2CCOC(Cn3cccn3)C2)no1 (stereo not given)	0.39
N#Cc1ccc(Cl)cc1NCC1CC1	-5.4
CC(C)c1cc(N2CCCC3(CCN(C)C3)C2)ncn1 (stereo not given)	-5.86
CCCc1nccn1-c1cccc(C(C)O)c1 (stereo not given)	-2.3
Cc1noc(C2CCCCN2C(=O)C2CCN(C(C)C)CC2)n1 (stereo not given)	5.11
Cc1ccc(C(=O)Nc2nnc(C3CC3)s2)c(-n2cnnn2)c1C	-14.4
CCN(CC)C1CCN(c2nccc(C3CCCC3)n2)C1 (stereo not given)	-13.5
Cc1cc(N2CCN(CCO)CC2)nc(-c2ccncc2)n1	0.374
O=C(CNC(=O)C1CCCC1)NCc1cnn(-c2ccc(F)cc2F)c1	-1.74
CCC1=NC2(CCC(C(=O)Nc3ccc(C)nc3)CC2)C(=O)N1C (stereo not given)	-2.35
CCOC(=O)C1CCN(CCCc2nnnn2-c2ccccc2)CC1	-3.5
COC(=O)N1CCC(NC(=O)Cn2cc(C)c3ccccc32)CC1	-7.09
CC(C)Oc1ccccc1CNC(=O)N1CCC(n2cncn2)CC1	26.9
c1cnc(N2CCC(c3cc4cccnc4[nH]3)CC2)nc1	-5.37
CCCn1cc(C(=O)NCC(=O)NC2CC2)c(C)n1	-0.483
Cc1cc(C(=O)N2CCCC(n3nc(C)cc3C)C2)on1 (stereo not given)	-10.1
N[C@H]1CN(S(=O)(=O)N2CCCCCC2)C[C@@H]1c1ccccc1	20
N#Cc1ccc(NC(=O)N2CCCCC2CN2CCCC2=O)cc1 (stereo not given)	-11

SMILES	cytotoxicity at 70.5 h [%]
CC(=O)N1CCN(C(=O)c2cnn(-c3ccccc3Cl)c2)CC1	3.15
NC(=O)C1CCN(C(=O)CCn2ccc3ccc(F)cc32)CC1	-6.99
COc1ccc(CNCc2c(C)nc3sc(C)cn23)c(OC)c1OC	11.7
Cc1nc(C)n(CC2CCCN(c3ccnc(-c4ccccc4)n3)C2)n1 (stereo not given)	-10.2
O=C1CC(C(=O)Nc2nnc(-c3cccs3)[nH]2)c2ccccc2N1 (stereo not given)	-2.83
CCOC1CCC2(CCN(C(=O)c3csnn3)CC2)c2ccccc21 (stereo not given)	36.5
c1cncc(N2CCOCC3(CCCN(c4nncs4)C3)C2)c1 (stereo not given)	-21.7
CN(C)C(=O)COC[C@]12COC[C@H]1CN(Cc1ccoc1)C2	-6.16
CCOCCCC(=O)NCc1ccnc(N2CCN(C)CC2)c1	4.8
Cc1cc(C)n(C2CCN(S(C)(=O)=O)CC2)n1	9.79
CC(=O)NCc1ccc(C(=O)N2CCCc3c(F)ccc(C)c32)cc1	-8.8
Cc1nn2c(nc1=O)-c1ccccc1NC2C(=O)O (stereo not given)	-9.44
Cc1nc2c(c(N3CCC(O)(Cn4ccnc4)CC3)n1)CCNCC2	-1.99
CCC(=O)N(c1ccc(C(=O)OC)cc1C)C(C)C	-3.07
O=S(=O)(CCO)CCc1ccccc1Cl	-9.35
CC(=O)NCCC(=O)NCc1cccnc1-n1cnc2ccccc21	-8.92
COC(=O)N1CCN(c2ncnc3nc(C)cc(C)c23)CC1	-4.12
Cc1csc(-c2cccc(NC(=O)NCC(C)(C)C(N)=O)c2)n1	-0.0997
COc1ncccc1CN1C[C@@H]2COC[C@]2(COc2ccccn2)C1	-20.4
CCOCCN1CCN(CC(=O)NC2(C#N)CCCC2)CC1CC (stereo not given)	0.4
Cc1cccc(CN2CCc3[nH]nc(C(=O)N(C)C)c3C2)n1	33.4
Cc1cnc(CN(C)C2CCN(Cc3ccc(Cl)s3)C2)o1 (stereo not given)	-15.5
Cn1cc(CN2CCCN(C(=O)c3ccc4c(c3)COC4)CC2)cn1	-4.36

SMILES	cytotoxicity at 70.5 h [%]
CCN(CC)C(=O)NC(C)c1ccc(Oc2cccnc2)c(F)c1 (stereo not given)	16
CC(C)(C)c1nnc(CN2CCN(CC(O)c3ccccc3)CC2)o1 (stereo not given)	-11.1
CNc1cc(C)nc(C2CN(Cc3cc[nH]n3)CCO2)c1 (stereo not given)	-7.87
Cc1c(C(C)NC2CSCCSC2)cnn1-c1ccc(F)cc1F (stereo not given)	-9.32
CCCC(O)CN1CC(C)(C)CN(C(=O)c2ccc(Cl)cc2)CC1=O (stereo not given)	-9.8
CNC(=O)CN1CCC(OCc2ccc(Cl)c(Cl)c2)CC1	3.41
COCCN1CCCC2(CCN(C(=O)c3cnc(O)cn3)C2)C1=O (stereo not given)	-6.54
CC(C)c1nc(C(=O)NCCn2ccnc2)nn1-c1cccc(F)c1	-14.8
CC(C)NC(=O)C(C(C)C)n1cnc2cc(F)c(F)cc21 (stereo not given)	-7.62
Cc1cc(C)n(CC2CCCN2C(=O)Cc2c(C)nn(C)c2C)n1 (stereo not given)	-0.624
CN(C)CC1COCCN1C(=O)C1(c2cccs2)CCCC1 (stereo not given)	0.993
Cc1csc(N2CCN(CC(=O)N3CCCC3)CC2C)n1 (stereo not given)	1.56
Cc1cc(=O)[nH]c(SC(C)C(=O)N2CCCN(C3CCCC3)CC2)n1 (stereo not given)	6.46
CCOCCn1nc(C)cc1C(=O)N1CC[C@](O)(CC)[C@H](O)C1	3.37
C[C@H](N)C(=O)N1CCC(c2[nH]ncc2-c2ccccc2)CC1	-4.88
Cc1ccc(CN(Cc2ncc[nH]2)C2CC(C)(C)NC(C)(C)C2)o1	9.13
O=C(c1ccoc1)N1CCCN(C(=O)c2ccc(C3CCCN3)s2)CC1 (stereo not given)	-7.17
Cc1nn(C)c(C)c1-c1ccc(=O)n(C(C)C(=O)NC(C)(C)C)n1 (stereo not given)	3.31
COCCN1C[C@@H](C)[C@@]2(COCCN(C(=O)c3ccoc3)C2)C1	1.95
O=C(NCc1cccnc1)[C@@H]1C[C@H]2[C@H](CCN2c2ncc(F)cn2)O1	-4.83
CC(C)c1nc(C2CCCN2Cc2ccon2)no1 (stereo not given)	-10.9
O=C(NCC1CCOC1)c1csc(-c2ccc(Cl)cc2)n1 (stereo not given)	-26.9
NC(=O)CCC1CCCN(Cc2cnc(N3CCCCC3)nc2)C1 (stereo not given)	-3.37

SMILES	cytotoxicity at 70.5 h [%]
Cn1cc(CNCCc2nccs2)c(-c2cccnc2)n1	-8.44
CC(C)N(C)C(=O)C1=NOC2(CCN(C(=O)c3ccnnc3)C2)C1 (stereo not given)	-1.5
CCN(CC)C(=O)Cn1c(C)cc2nc(SC)n(CC(C)C)c(=O)c21	-6.31
COc1ccccc1NCC(=O)NCc1ccc(-c2ccn[nH]2)cc1	-4.94
Cc1ccc(CN2CCC3(CC2)CC(c2cccnc2)CO3)s1 (stereo not given)	2.33
O=c1ccc(-c2cccs2)nn1CN1CCOC(c2ccccc2)C1 (stereo not given)	-21.3
CCS(=O)(=O)N1CCC(OC)c2ccccc2N(CC(=O)NC)C(=O)C1 (stereo not given)	-1.92
CCN1CC(C(=O)NC(C)(C)C(=O)OC)CC1=O (stereo not given)	3.17
O=S(=O)(C1CC1)N1CCC2(CC1)CN(Cc1nccs1)CCO2	-5.12
O=C1CCCN1Cc1ncn2c1CN(C(=O)Cc1ccccc1)CCC2	0.61
Cn1cc(C[C@H]2[C@H](O)CCN2Cc2ccc(F)cc2)cn1	4.14
CCN1CC(C(=O)NC(C)(C)CC)CC1=O (stereo not given)	-3.27
O=C(NC1CC1)N1Cc2[nH]nc(COCC3CC3)c2C1	-7.86
Cc1ncsc1-c1nnc(C2CCN(Cc3ccc(Cl)cc3)CC2)o1	32.1
CCOCCC(=O)N1CCCCC1CCn1cccn1 (stereo not given)	-6.8
CCCc1nc(NCCCn2cccn2)c2c(n1)c(C)nn2CC	-4.19
Cc1nn(C)c(Cl)c1C1CCCN1c1ncnc2sccc12 (stereo not given)	-1.91
Cc1nccn1CCC1CCN(c2ccncn2)CC1	-2.98
CCCSc1ncccc1C(=O)NCc1ccc(S(N)(=O)=O)cc1	-4.05
CN1CCCC(CCC(=O)N2CCc3sc(C(=O)N(C)C)cc3C2)C1 (stereo not given)	-5.77
Cn1cc(C(=O)N2CCCC(Cc3cncc4ccccc34)C2)cn1 (stereo not given)	-1.78
COc1ccc(Cl)cc1NCc1nc2[nH]c(C)c(C)c(=O)n2n1	-4.46
COCc1noc(CN2C(=O)OC[C@@H]2C(C)C)n1	19.3

SMILES	cytotoxicity at 70.5 h [%]
O=C(CCNC(=O)c1cnccn1)Nc1ncc[nH]1	-31.8
CCN(C)C(=O)c1ccc2c(c1)C(c1nc[nH]n1)CN2S(C)(=O)=O (stereo not given)	-8.39
O=C(NCc1cc[nH]n1)N1CCCC(N2CCCC2)C1 (stereo not given)	-4.82
CN(Cc1ccc2c(c1)OCO2)Cc1cscn1	10.1
COc1cc(C)nc(N2CCN(C(=O)CNC(C)(C)C)CC2)n1	-15.6
COc1ccc(C(NCc2cccc(C#N)c2)C2CC2)cc1 (stereo not given)	-2.12
COc1cc(CN(C)C(=O)NCC(=O)NC(C)C)ccc1SC	-1.54
O=C(Cn1ccc(=O)c2ccccc21)Nc1cnccc1O	8.04
N[C@H]1CN(C(=O)c2ccc(Cl)cc2O)C[C@@H]1C1CC1	-3.15
CC1CCN(S(=O)(=O)N2CCc3sccc3C2)CC1	45
c1cncc(CN2CCC3(COCCN(C4CCOCC4)C3)C2)c1 (stereo not given)	-6.19
CCc1nc(C#N)c(N2CCC(c3nc(-c4ccccc4)no3)CC2)o1	0.267
CN(C)CC1CN(Cc2cc(Cl)cc3cccnc23)CCO1 (stereo not given)	-9.09
O=C(O)c1sccc1Oc1ccc(NC(=O)C2CC2)cc1	-0.448
CS(=O)(=O)NC1CCCN(C(=O)Nc2cccnc2N2CCCC2)C1 (stereo not given)	0.921
COC(=O)c1ccc(CN(C(C)C)C(C)C)o1	-2.95
Cc1ncoc1C(=O)N1C[C@H]2CCC[C@@]2(COCC2CCOCC2)C1	-12.7
CN(Cc1cc(C(C)(C)C)n[nH]1)C(=O)c1ccccc1C1CCNC1 (stereo not given)	-13.4
Cc1ccoc1CNCc1nnc2n1CCCC2C(F)(F)F (stereo not given)	-3.7
CCOC(=O)CCNC(=O)c1cc(Cl)cc2cccnc12	-4.4
Cc1cccc(S(=O)(=O)N2CCCC3(CCCN3S(C)(=O)=O)C2)c1 (stereo not given)	3.22
O=S(=O)(CC1CCOCC1)NCc1ccnc(O)c1	10.4
Cn1nc(C2CC2)c2c1NC(=O)CC2c1cc(CN2CCCC2)cs1 (stereo not given)	-8.83

From ChEMBL document CHEMBL3507680, “University of Dundee, Gates Library screen for HepG2 cell viability”
